Reference: the NIST ThermoML archive (doi:10.1021/acs.jced.9b00064)
Numbers after ± are expanded uncertainties.

Tests used:
[1] = Crystal; DSC
[2] = Molar enthalpy of transition or fusion; conditions: Crystal; DSC

c1ccc2ccccc2c1 [naphthalene]
Triple point temperature [1]: 355.04 ± 2.1 K
Molar enthalpy of transition or fusion [2]: 4.99 ± 0.478 kcal/mol
